# According to publication PMC5905287, “Synthesis and in vitro biochemical evaluation of oxime bond-linked daunorubicin–GnRH-III conjugates developed for targeted drug delivery” (Beilstein Journal of Organic Chemistry, 2018):
# Read-outs that look alike come from different tables or passages of the source. Non-standard residues stand in square brackets, D forms with d. Residues, ends and D or L forms follow the SMILES beside them. *: point of attachment. Daunorubicin(13-NOCH2CO) = COc1cccc2c1C(=O)c1c(O)c3c(c(O)c1C2=O)C[C@@](O)(C(C)=NOCC(=O)*)C[C@@H]3O[C@H]1C[C@H](N)[C@H](O)[C@H](C)O1; pGlu = O=C1CC[C@@H](C(=O)O)N1; Butyryl = CCCC(=O)*
# Columns and labels:
# GnRH-receptor = tested on: GnRH-receptor; set-up: method as in PMID 10647698, PMID 20859992; settings: 1 pM to 1 µM; ref [51]–[52]; cited from earlier work
# [1] = tested on: MCF-7 human breast cancer cell line; assay: In vitro cytostatic effect, alamarBlue assay, MCF-7; format: cell-based; settings: MCF-7, 10 µM
# Text: (§1) Cell lines often function as the first model system of choice to study biological processes or to test the efficiency of drugs or drug conjugates and their cytotoxic effects. Immortal cell lines offer various benefits, for instance they are easy to handle, cost-effective and provide consistent sample and reproducible results. Nevertheless, cell lines also present the disadvantage that after a period of continuous growth, cell characteristics can change and dedifferentiate in culture. The serial passaging can cause genotypic and phenotypic variations and the state of confluency can also affect gene expression pattern in some cell lines. Due to this, the usage of internal standards during the evaluation of new potential candidates might be necessary to ensure comparability with previous results. The cytostatic effect of the novel GnRH-III bioconjugates was determined on HT-29 human colon cancer and MCF-7 human breast cancer cell lines by alamarBlue® assay. For a better comparison, the well-studied bioconjugates GnRH-III–[^8Lys(Dau=Aoa)] (K1) and GnRH-III–[^4Lys(Bu), ^8Lys(Dau=Aoa)] (K2) were used as positive controls and internal standards. The corresponding IC50 values were calculated by using nonlinear regression (sigmoidal dose response) (Figure 3, Table 2). Unfortunately, the D-Trp containing compounds 3 and 6 started to precipitate in both cell culture media at higher concentrations limiting the concentration down to a maximum of 10 µM. This effect could not be prevented by using DMSO instead of ddH2O for the preparation of the stock solutions. Unfortunately, the lower concentration range with a maximum of 10 µM was not sufficient to achieve the dose-response. […] Nevertheless, the replacement of ^6Asp by D-Asp, D-Glu or D-Trp led to a decreased cytostatic effect on the estimated cancer cell lines.
# (§2) MCF-7 human breast adenocarcinoma cells were cultured in Dulbecco’s Modified Eagle Medium (DMEM, Lonza, Basel, Switzerland), supplemented with 10% (v/v) fetal bovine serum (FBS, Lonza), L-glutamine (2 mM, Lonza), non-essential amino acids (NEAA, Sigma-Aldrich Kft), sodium pyruvate (1 mM, Lonza) and penicillin-streptomycine (Lonza). […]
# (§3) Cells were seeded to 96-well plates (Sarstedt, Nümbrecht, Germany, 5 × 10^3 cells/well) one day prior to the treatment in complete cell medium. […] Fluorescence was detected using Synergy H4 multi-mode microplate reader (BioTek, Winooski, VT, USA), excitation and emission wavelengths were set to 570 and 620 nm, respectively. Cytostasis was measured using 4 parallels, each experiment was repeated twice. Cytostatic effect (and IC50 values) were calculated by using nonlinear regression (sigmoidal dose response) with Origin Pro8 (OriginLab Corp., Northampton, MA, USA.).
# [2] = tested on: HT-29 human colon cancer cell line; assay: In vitro cytostatic effect, alamarBlue assay, HT-29; format: cell-based; settings: HT-29, 10 µM
# Text: as §1, §2, §3
# [3] = Degradation in rat liver lysosomal homogenate (LC-MS); format: in vitro ADME; settings: rat liver lysosomal homogenate, 37 °C, pH 5
# Experimental: In order to gain insight into the cellular release of the drug, the degradation of the Dau–GnRH-III derivatives 1–6, K1 and K2 was determined in the presence of rat liver lysosomal homogenate at 37 °C. […] However, the degradation level and the cleavage sites within the GnRH-III sequence differ considerably depending on the incorporated amino acids, whereby the hydrolyses of the C-terminus (H-Gly-NH2 and H-Pro-Gly-NH2) occurred first in all eight GnRH-III derivatives. Due to the high chemical and enzymatic stability of the oxime bond, no free Dau was detected by LC–MS. In accordance with our previous results, the digestion of the two peptides containing L-Asp in position 6 (K1, K2) provided the smallest Dau-containing metabolite (H-Lys(Dau=Aoa)-OH, m/z 729.36 [M + H]^+). This metabolite could already be detected after 1 hour of incubation in case of K2 and after 2 hours in case of K1. […] It might be assumed that D-Trp of GnRH-III–[^4Lys(Bu), ^6D-Tpr, ^8Lys(Dau=Aoa)] (6) is also accepted at the cleavage site, but due to the prior hydrolysis of the ^7Trp-^8Lys(Dau=Aoa)-bond an evidential fragment has not been detected. A reason for these diversities might be the subsite specificities of the lysosomal proteases. For instance, lysosomal cysteine proteases also known as cathepsins show a broad substrate specificity. […] For instance, the analyzed fragments of the ^6L-Asp derivatives gave clear hints for the presence of endopeptidases, while the digestion of the ^6D-Aaa compounds 1–3 gave only fragments which evidence the activity of exomono- and/or dipeptidases. Moreover, the obtained results for the bioconjugates that contain ^4Lys(Bu) (K2, 4–6) instead of serine indicate a proteolytic cleavage by lysosomal endopeptidases, which might be of great importance for the release of the smallest Dau-containing metabolite.
# The rat liver lysosomal homogenate was prepared as previously described. The protein concentration was determined by Qubit Protein Assay Kit according to the manufacturer’s protocol (ThermoFisher Scientific, Waltham, MA, USA). The bioconjugates were dissolved in ddH2O to a concentration of 5 µg/µL. The reaction was carried out in 0.2 M NaOAc buffer (pH 5), with an identical concentration of bioconjugate and rat liver lysosomal homogenate (0.25 µg/µL). The reaction mixtures were incubated at 37 °C and aliquots of 15 µL were taken at 5 min, 1 h, 2 h, 4 h, 8 h and 24 h and quenched with 2 µL of acetic acid. The analysis of the samples was performed by LC–MS.
# [4] = set-up: method as in PMID 20953647, PMID 21668011; settings: 90% human serum, 37 °C; ref [26],[38]; cited from earlier work
# trypsin = tested on: trypsin; set-up: method as in PMID 20953647, PMID 21668011; settings: 37 °C; ref [26],[38]; cited from earlier work
# GnRH-RI [5] = target: T1, GnRH-RI (Homo sapiens, UniProt P30968); set-up: method as in PMID 22967796, PMID 25908176; settings: human pituitary tissue; ref [29],[50]; read-out: IC50 pituitary (reported values); cited from earlier work
# T1 sequence (P30968 1-328): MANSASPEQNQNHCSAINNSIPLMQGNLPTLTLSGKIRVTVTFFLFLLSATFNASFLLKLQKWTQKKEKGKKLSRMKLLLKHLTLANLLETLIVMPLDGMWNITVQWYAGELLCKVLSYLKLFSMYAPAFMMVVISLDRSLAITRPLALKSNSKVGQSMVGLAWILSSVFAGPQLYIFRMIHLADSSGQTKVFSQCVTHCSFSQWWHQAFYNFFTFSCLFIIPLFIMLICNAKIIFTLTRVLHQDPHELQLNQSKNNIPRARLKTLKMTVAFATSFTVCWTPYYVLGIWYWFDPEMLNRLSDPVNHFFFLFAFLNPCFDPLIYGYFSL
# GnRH-RI [6] = target: T1, GnRH-RI; set-up: human prostate cancer cells were obtained from a patient at the time of initial surgical treatment; from tissue; host or cells: human prostate cancer specimen from a patient (surgery); membrane homogenate; method as in PMID 22967796, PMID 25908176; settings: human prostate cancer tissue; ref [29],[50]; read-out: IC50 prostate cancer (reported values); cited from earlier work
compound,measurement,setting,value
bombesin,displacement of [125I]-triptorelin,GnRH-receptor,could not inhibit the receptor binding
"CCCC(=O)NCCCC[C@H](NC(=O)[C@H](Cc1c[nH]c2ccccc12)NC(=O)[C@H](Cc1c[nH]cn1)NC(=O)[C@@H]1CCC(=O)N1)C(=O)N[C@@H](Cc1c[nH]cn1)C(=O)N[C@H](Cc1c[nH]c2ccccc12)C(=O)N[C@@H](Cc1c[nH]c2ccccc12)C(=O)N[C@@H](CCCCNC(=O)CON=C(C)[C@]1(O)Cc2c(O)c3c(c(O)c2[C@@H](O[C@H]2C[C@H](N)[C@H](O)[C@H](C)O2)C1)C(=O)c1c(OC)cccc1C3=O)C(=O)N1CCC[C@H]1C(=O)NCC(N)=O [compound 6, GnRH-III–[^4Lys(Bu), ^6D-Tpr, ^8Lys(Dau=Aoa)]] ([pGlu]HWK(Butyryl)H[dW]WK(Daunorubicin(13-NOCH2CO))PG-NH2)",cell viability at the highest concentration,[1],53%
same,cell viability at the highest concentration,[2],55%
same,incubation time after which the smallest Dau-containing metabolite H-Lys(Dau=Aoa)-OH was detected,[3],2 h
"GnRH-III–[^4Lys(Ac), ^8Lys(Dau=Aoa)]",time stable in human serum,[4],at least 24 h
same,time stable in trypsin,trypsin,at least 24 h
somatostatin-14,displacement of [125I]-triptorelin,GnRH-receptor,could not inhibit the receptor binding
"COc1cccc2c1C(=O)c1c(O)c3c(c(O)c1C2=O)C[C@@](O)(C(C)=NOCC(=O)NCCCC[C@H](NC(=O)[C@H](Cc1c[nH]c2ccccc12)NC(=O)[C@@H](Cc1c[nH]c2ccccc12)NC(=O)[C@H](Cc1c[nH]cn1)NC(=O)[C@H](CO)NC(=O)[C@H](Cc1c[nH]c2ccccc12)NC(=O)[C@H](Cc1c[nH]cn1)NC(=O)[C@@H]1CCC(=O)N1)C(=O)N1CCC[C@H]1C(=O)NCC(N)=O)C[C@@H]3O[C@H]1C[C@H](N)[C@H](O)[C@H](C)O1 [compound 3, [6D-Trp, 8Lys(Dau=Aoa)]] ([pGlu]HWSH[dW]WK(Daunorubicin(13-NOCH2CO))PG-NH2)",cell viability at the highest concentration,[1],69%
same,cell viability at the highest concentration,[2],58%
same,incubation time after which the smallest Dau-containing metabolite H-Lys(Dau=Aoa)-OH was detected,[3],4 h
"GnRH-II–[D-Lys^6(Dau=Aoa)] (QHWSHKWYPG; N-terminal pyroglutamate (from Gln1); D-Lys at position 6, with daunorubicin oxime-linked through aminooxyacetyl on its epsilon-amine (Dau=Aoa); C-terminal amide; Decapeptide limits by convention (mat) [earlier reported daunorubicin–GnRH-II conjugate]",IC50,GnRH-RI [5],4.2 nM
same,IC50,GnRH-RI [6],2.1 nM
buserelin,displacement of [125I]-triptorelin,GnRH-receptor,displaced [^125I]-triptorelin completely
cetrorelix,displacement of [125I]-triptorelin,GnRH-receptor,displaced [^125I]-triptorelin completely
